# Read-outs that look alike come from different tables or passages of the source.
# What was measured:
# EGFR [1] = conditions: cited from earlier work
# [2] = tested on: receptor for fibroblast growth factor; conditions: ATP-binding site of the catalytic domain; cited from earlier work
# v-Src [3] = biological target: T1, v-Src (Rous sarcoma virus, UniProt P00524); conditions: cited from earlier work
# DMS114 = experiment: Cell death in human cancer cell line panel; format: cell-based; conditions: DMS114 lung cancer cells, 48 h
# [4] = biological target: eukaryotic elongation factor-2 kinase, and calmodulin-dependent protein kinase III (Rattus norvegicus, UniProt P70531); experiment: Simultaneous protein kinase detection in SR-3Y1 lysate: eEF-2K, CaMK III bands; format: biochemical
# Flt-1 = Flt-1 (Homo sapiens, UniProt P17948); experiment: PTK activity in Flt-1-overexpressing NIH3T3 cells; format: cell-based
# protein kinase C = experiment: Simultaneous protein kinase detection in SR-3Y1 lysate: protein kinase C bands; format: biochemical
# A431 cells = experiment: Cell-growth inhibition of carcinoma A431 cells; format: cell-based; conditions: Homo sapiens, A-431, read-out: IC50 for cell-growth inhibition
# v-Src [5] = biological target: T1, v-Src; experiment: PTK activity of immunopurified v-Src, 32P incorporation into Raytide; format: biochemical; conditions: for mode of inhibition of v-Src with respect to ATP: various ATP concentrations
# KDR/Flk-1 = KDR/Flk-1 (Homo sapiens, UniProt P35968); experiment: PTK activity in KDR/Flk-1-NIH3T3 cells; format: cell-based
# PTK = format: biochemical; conditions: SR-3Y1 lysate
# NCI-H522 = experiment: Cell death in human cancer cell line panel; format: cell-based; conditions: NCI-H522 lung cancer cells, 48 h
# SR-3Y1 cells = experiment: Cell-growth inhibition of SR-3Y1 cells; format: cell-based; conditions: SR3Y1, read-out: IC50 for cell-growth inhibition
# EGFR [6] = biological target: EGFR (Homo sapiens, UniProt P00533); experiment: PTK; format: biochemical
# [7] = biological target: catalytic subunit of protein kinase A (Bos taurus, UniProt P00517); experiment: Activity of isolated catalytic subunit of protein kinase A; format: biochemical, bovine; conditions: treatment with as much as 100 M; results not shown
# protein kinase A = experiment: Simultaneous protein kinase detection in SR-3Y1 lysate: protein kinase A bands; format: biochemical
# HL-60 cells = conditions: cited from earlier work
# topoisomerases I = conditions: cited from earlier work
# topoisomerases II = conditions: cited from earlier work
# sarcoma 180 tumor cells = conditions: mice implanted with sarcoma 180 tumor cells; cited from earlier work
# [8] = tested on: 37 lines of cancer cells derived from human solid tumors; experiment: Cell death in panel of 37 lines of cancer cells derived from human solid tumors; format: cell-based; conditions: 37 human solid tumor lines, 48 h
# T1 sequence (P00524 2-526): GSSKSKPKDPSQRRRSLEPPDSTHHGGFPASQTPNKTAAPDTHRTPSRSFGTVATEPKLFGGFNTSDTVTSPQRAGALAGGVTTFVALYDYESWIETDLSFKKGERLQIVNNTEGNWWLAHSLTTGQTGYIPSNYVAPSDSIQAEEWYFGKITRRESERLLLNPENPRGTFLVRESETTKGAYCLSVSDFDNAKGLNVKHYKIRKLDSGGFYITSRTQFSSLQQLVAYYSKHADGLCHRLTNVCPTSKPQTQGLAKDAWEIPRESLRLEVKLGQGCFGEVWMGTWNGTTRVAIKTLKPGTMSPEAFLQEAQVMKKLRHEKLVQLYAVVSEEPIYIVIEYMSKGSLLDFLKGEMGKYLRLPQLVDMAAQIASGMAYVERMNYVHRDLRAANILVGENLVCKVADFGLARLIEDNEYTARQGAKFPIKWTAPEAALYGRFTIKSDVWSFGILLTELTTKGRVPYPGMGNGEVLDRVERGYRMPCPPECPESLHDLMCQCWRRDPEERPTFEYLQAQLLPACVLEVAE
# Sequence of EGFR (Homo sapiens, UniProt P00533) (P00533 25-1210, looked up): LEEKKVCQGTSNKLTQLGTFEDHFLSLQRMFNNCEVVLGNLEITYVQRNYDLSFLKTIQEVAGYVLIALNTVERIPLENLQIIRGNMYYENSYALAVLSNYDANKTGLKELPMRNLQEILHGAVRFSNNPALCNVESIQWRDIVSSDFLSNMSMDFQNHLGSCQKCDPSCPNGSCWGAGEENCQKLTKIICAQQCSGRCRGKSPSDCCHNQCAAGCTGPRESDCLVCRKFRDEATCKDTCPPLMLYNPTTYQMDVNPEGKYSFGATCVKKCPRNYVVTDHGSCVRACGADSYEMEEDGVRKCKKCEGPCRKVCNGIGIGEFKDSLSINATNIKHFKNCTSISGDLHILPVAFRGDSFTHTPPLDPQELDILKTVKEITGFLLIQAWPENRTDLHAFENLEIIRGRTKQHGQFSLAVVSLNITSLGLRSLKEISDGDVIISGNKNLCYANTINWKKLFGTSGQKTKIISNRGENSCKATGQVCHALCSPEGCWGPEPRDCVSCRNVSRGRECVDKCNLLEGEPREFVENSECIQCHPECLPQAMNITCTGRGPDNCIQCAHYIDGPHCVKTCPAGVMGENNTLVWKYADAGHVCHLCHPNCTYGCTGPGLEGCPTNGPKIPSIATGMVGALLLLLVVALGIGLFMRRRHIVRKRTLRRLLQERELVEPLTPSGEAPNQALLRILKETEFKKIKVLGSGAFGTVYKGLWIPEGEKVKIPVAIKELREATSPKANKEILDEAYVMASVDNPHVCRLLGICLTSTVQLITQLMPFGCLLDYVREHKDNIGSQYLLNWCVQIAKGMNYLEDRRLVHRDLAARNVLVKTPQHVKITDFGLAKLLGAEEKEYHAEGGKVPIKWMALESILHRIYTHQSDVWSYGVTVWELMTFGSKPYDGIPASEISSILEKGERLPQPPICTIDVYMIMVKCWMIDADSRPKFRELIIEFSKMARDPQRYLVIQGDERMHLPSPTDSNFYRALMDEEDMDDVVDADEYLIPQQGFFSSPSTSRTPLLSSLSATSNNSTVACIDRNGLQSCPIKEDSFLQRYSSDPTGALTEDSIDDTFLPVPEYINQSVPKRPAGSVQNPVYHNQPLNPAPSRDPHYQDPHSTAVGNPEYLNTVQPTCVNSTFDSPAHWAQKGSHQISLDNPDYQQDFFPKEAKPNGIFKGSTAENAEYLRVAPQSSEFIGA
# Sequence of KDR/Flk-1 (P35968 20-1356): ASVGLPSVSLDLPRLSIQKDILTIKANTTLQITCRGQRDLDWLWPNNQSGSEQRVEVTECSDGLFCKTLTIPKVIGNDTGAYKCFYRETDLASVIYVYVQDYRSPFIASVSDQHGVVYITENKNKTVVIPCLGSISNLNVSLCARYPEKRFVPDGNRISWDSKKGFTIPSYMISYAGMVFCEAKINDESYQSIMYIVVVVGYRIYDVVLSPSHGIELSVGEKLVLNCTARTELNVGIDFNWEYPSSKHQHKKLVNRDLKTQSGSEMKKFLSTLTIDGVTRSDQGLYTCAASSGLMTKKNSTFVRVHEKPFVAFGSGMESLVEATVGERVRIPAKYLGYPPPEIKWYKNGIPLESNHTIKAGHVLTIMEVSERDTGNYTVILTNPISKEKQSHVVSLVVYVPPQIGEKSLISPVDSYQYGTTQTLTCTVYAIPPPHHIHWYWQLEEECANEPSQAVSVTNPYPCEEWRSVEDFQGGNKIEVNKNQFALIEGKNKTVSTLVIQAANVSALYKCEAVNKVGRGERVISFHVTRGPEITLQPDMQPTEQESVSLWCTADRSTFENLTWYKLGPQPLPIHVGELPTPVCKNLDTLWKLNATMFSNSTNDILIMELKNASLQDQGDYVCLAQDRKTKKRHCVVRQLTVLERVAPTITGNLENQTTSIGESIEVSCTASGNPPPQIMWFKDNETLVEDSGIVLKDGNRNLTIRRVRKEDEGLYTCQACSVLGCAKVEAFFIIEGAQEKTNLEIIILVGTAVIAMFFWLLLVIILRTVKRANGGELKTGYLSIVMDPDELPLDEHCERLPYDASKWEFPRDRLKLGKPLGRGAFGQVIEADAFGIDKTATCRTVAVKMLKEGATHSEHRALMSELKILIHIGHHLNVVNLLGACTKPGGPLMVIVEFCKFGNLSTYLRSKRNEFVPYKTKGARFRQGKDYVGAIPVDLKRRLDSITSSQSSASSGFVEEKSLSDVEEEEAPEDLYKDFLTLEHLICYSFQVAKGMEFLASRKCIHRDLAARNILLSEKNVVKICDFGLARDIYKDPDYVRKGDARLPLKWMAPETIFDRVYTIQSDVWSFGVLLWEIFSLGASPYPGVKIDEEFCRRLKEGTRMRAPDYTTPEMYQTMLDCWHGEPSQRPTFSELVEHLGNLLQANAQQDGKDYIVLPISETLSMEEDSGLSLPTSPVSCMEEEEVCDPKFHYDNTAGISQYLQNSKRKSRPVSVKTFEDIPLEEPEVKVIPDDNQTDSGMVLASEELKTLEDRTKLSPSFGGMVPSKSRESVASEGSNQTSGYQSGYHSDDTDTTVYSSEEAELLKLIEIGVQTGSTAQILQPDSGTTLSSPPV
# Sequence of eukaryotic elongation factor-2 kinase, and calmodulin-dependent protein kinase III (P70531 2-724): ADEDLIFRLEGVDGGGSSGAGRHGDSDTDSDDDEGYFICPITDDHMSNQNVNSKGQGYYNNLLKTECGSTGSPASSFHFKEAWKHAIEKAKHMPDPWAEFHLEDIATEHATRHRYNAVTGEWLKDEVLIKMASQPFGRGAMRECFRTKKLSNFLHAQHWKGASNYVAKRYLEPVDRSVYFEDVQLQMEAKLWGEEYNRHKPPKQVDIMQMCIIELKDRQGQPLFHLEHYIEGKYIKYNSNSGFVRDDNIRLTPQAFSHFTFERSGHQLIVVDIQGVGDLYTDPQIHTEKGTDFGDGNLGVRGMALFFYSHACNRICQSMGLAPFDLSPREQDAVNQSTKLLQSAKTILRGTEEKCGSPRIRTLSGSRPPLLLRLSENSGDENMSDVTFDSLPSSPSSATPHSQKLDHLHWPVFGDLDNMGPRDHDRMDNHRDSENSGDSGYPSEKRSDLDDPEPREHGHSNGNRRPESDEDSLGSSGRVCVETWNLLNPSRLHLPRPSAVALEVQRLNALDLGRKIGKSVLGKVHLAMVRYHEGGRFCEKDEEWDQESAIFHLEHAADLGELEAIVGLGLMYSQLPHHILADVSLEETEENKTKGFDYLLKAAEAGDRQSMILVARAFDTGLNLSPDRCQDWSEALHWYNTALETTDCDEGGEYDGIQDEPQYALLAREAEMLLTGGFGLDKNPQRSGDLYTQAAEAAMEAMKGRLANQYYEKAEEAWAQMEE
# Sequence of Flt-1 (P17948 27-1338, species assumed): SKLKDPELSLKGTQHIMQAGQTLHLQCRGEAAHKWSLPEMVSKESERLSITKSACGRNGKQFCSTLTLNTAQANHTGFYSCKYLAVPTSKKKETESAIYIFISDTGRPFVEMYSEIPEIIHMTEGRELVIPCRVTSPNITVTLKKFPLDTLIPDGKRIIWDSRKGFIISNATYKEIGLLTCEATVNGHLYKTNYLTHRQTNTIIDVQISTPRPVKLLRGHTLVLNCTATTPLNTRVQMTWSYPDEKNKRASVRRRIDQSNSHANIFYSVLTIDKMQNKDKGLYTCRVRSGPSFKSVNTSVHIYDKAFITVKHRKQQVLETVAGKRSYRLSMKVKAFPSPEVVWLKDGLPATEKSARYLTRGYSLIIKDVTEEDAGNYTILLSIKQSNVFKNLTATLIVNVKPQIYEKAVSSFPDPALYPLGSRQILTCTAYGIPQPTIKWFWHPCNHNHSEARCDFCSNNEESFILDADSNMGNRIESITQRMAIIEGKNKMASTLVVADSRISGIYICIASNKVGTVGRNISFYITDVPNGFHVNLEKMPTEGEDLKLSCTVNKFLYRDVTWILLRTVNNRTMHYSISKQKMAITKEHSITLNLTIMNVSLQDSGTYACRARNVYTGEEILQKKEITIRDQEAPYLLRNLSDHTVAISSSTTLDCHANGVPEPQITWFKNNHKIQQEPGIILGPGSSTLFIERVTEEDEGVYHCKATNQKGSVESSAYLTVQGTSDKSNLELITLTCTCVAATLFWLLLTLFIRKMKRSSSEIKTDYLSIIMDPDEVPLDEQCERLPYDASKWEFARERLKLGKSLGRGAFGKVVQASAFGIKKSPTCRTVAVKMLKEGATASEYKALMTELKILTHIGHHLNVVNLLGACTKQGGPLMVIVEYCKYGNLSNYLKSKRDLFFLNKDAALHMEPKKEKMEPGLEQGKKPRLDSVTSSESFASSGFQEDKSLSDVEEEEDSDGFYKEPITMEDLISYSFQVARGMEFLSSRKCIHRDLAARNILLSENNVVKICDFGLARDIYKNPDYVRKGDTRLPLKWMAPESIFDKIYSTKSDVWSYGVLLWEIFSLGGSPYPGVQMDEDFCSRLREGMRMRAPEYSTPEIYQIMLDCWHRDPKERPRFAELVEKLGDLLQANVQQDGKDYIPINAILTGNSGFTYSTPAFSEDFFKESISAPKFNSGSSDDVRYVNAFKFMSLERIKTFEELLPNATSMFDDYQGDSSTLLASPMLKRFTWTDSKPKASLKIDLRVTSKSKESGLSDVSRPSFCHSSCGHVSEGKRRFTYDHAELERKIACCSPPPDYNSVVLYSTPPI
structure (smiles),measurement,setting,value
"CNc1cc2c(Nc3cccc(Br)c3)ncnc2cn1 [PD158780, 4‐[(3‐bromophenyl)amino]‐6‐(methylamino)‐pyrido[3,4‐d]pyrimidine]",mode of inhibition of PTK activity of EGFR with respect to ATP,EGFR [1],competition with ATP
O=C(O)c1cc(N(Cc2ccccc2O)Cc2cc(O)ccc2O)ccc1O [lavendastin-A],mode of inhibition of PTK activity of EGFR with respect to ATP,EGFR [1],competition with ATP
Cc1[nH]c(/C=C2\C(=O)Nc3ccccc32)c(C)c1CCC(=O)O [SU6668],mode of inhibition of receptor for fibroblast growth factor with respect to ATP,[2],compete with ATP
O=c1c(O)c(-c2ccc(O)c(O)c2)oc2cc(O)cc(O)c12 [quercetin],mode of inhibition of v-Src with respect to ATP,v-Src [3],competition with ATP
same,IC50,v-Src [3]; read-out: IC50 on v-Src,3000 nM
"CC(C)=CC[C@@H](OC(=O)CC(C)(C)O)C1=CC(=O)c2c(O)ccc(O)c2C1=O [β‐HIVS, β‐Hydroxyisovalerylshikonin]",induction of cell-death,DMS114,efficiently induced cell-death
same,intensities of bands of proteins phosphorylated by eEF-2 kinase and CaMK III,[4],not significantly altered
same,IC50,Flt-1,> 5000 nM
same,intensities of bands of proteins phosphorylated by protein kinase C,protein kinase C,not significantly altered
same,IC50,A431 cells,~11000 nM
same,IC50,v-Src [5],~1000 nM
same,inhibition of tyrosine kinase activity of v-Src (in words),v-Src [5],strongly inhibited
same,mode of inhibition of v-Src with respect to ATP,"v-Src [5]; Lineweaver-Burk, 1 and 10 M inhibitor",non‐competitive
same,mode of inhibition of v-Src with respect to ATP,"v-Src [5]; Lineweaver-Burk, 1 and 10 M inhibitor, listed as -HIVS",did not compete with ATP
same,mode of inhibition of v-Src with respect to substrate Raytide,"v-Src [5]; Lineweaver-Burk, various Raytide concentrations, 1 and 10 M inhibitor",competitively inhibited
same,IC50,KDR/Flk-1,~2500 nM
same,concentration needed to inhibit the tyrosine kinase activity of KDR/Flk-1,KDR/Flk-1; KDR/Flk-1-NIH3T3 cells,more than 1 M
same,inhibition of PTK activity of KDR/Flk-1 (in words),KDR/Flk-1; KDR/Flk-1-NIH3T3 cells,weakly inhibited
same,inhibition of PTK activity of KDR/Flk-1 (in words),"KDR/Flk-1; KDR/Flk-1-NIH3T3 cells, listed as -HIVS",inhibited significantly
same,intensities of bands of proteins phosphorylated by PTK,PTK,decreased markedly
same,induction of cell-death,NCI-H522,efficiently induced cell-death
same,IC50,SR-3Y1 cells,~1200 nM
same,IC50,EGFR [6],~700 nM
same,inhibition of tyrosine kinase activity of EGFR (in words),EGFR [6],strongly inhibited
same,inhibition of tyrosine phosphorylation of EGFR,EGFR [6],evident
same,change in activity of catalytic subunit of protein kinase A,[7],practically no change
same,intensities of bands of proteins phosphorylated by protein kinase A,protein kinase A,not significantly altered
same,induction of apoptosis,HL-60 cells,induced apoptosis
O=c1c(-c2ccc(O)cc2)coc2cc(O)cc(O)c12 [genistein],mode of inhibition of PTK activity of EGFR with respect to ATP,EGFR [1],competition with ATP
O=CN/C=C/c1cc(O)ccc1O [erbstatin],mode of inhibition of PTK activity of EGFR with respect to ATP,EGFR [1],competition with ATP
"CC(C)=CC[C@@H](O)C1=CC(=O)c2c(O)ccc(O)c2C1=O [shikonin, reference compound]",inhibition of topoisomerase I activity,topoisomerases I,inhibit
same,intensities of bands of proteins phosphorylated by eEF-2 kinase and CaMK III,[4],not significantly altered
same,inhibition of topoisomerase II activity,topoisomerases II,inhibit
same,intensities of bands of proteins phosphorylated by protein kinase C,protein kinase C,not significantly altered
same,PTK activity of v-Src remaining in the presence of inhibitor,v-Src [5]; lowest level reached over concentrations tested (Fig. 5),≥ 50%
same,inhibition of PTK activity of KDR/Flk-1 (in words),KDR/Flk-1; KDR/Flk-1-NIH3T3 cells,inhibited significantly
same,antitumor activity,sarcoma 180 tumor cells,exhibits antitumor activity
same,intensities of bands of proteins phosphorylated by PTK,PTK,decreased markedly
same,IC50 for EGFR,"EGFR [6]; EGFR isolated from A431 cells, estimated from Fig. 4B",impossible to estimate
same,concentration required for inhibition of the PTK activity of EGFR,EGFR [6]; Fig. 4A,more than 10 M
same,induction of cell death across the panel,[8],induced cell death in a wide variety of tumor cell lines
same,intensities of bands of proteins phosphorylated by protein kinase A,protein kinase A,not significantly altered
